This note sets out measurements from patent US8802597B2, “Herbicidal pyrimidines” (E I du Pont de Nemours and Company, priority 2003, dated 2014).

Type in all cases: in vivo
Experiment [1] concerns daisy fleabane (Erigeron spp.). As to the kind of experiment: Test L field study, Compound 1 and nicosulfuron. The settings on record: Nicosulfuron 18 g a.i./ha, approximately 56 days after treatment. The text has this: (§1) This field study included treatments that consisted of Compound 1 and nicosulfuron alone and in combination on Canada thistle (Cirsium arvense) and daisy fleabane (Erigeron spp.). The plants ranged from 20 to 30 cm in height at the time of application during the month of May in the vicinity of Newark, Del. Compound 1 was formulated as a wettable powder containing 25% active ingredient by weight. Nicosulfuron was in the form of Accent® Herbicide, a water-dispersible granule formulation containing 75% active ingredient by weight. The formulations were dispersed in water in the sprayer tank before treatment. The treatments were made using a backpack sprayer calibrated to deliver 24 gallons per acre (224 L per hectare) to a 10 ft×30 ft (3 m×9 m) plot. Each treatment was replicated two times. The effects on the plants approximately 56 days after treatment were visually compared to untreated controls. Plant response ratings were calculated as the means of the two replicates, based on a scale of 0 to 100 where 0 is no effect and 100 is complete control. Colby's Equation was used to determine the herbicidal effects expected from the mixture.

The subject of experiment [2] is Canada thistle (Cirsium arvense). As to the kind of experiment: Test L field study, Compound 1 and nicosulfuron. The settings on record: Nicosulfuron 18 g a.i./ha, approximately 56 days after treatment.
Excerpt: as §1

In experiment [3] the test system is catchweed bedstraw (GALAP; Galium aparine). In words: Test I mixtures of compound 9 with metsulfuron-methyl and chlorsulfuron-metsulfuron-methyl (5:1). To be noted: applied alone. The text has this: (§2) This test evaluated the effect of mixtures of compound 9 with metsulfuron-methyl and with a 5:1 by weight combination of chlorsulfuron and metsulfuron-methyl on several plant species. Seeds of test plants consisting of wheat (TRZAW; Triticum aestivum), wild buckwheat, (POLCO; Polygonum convolvulus), redroot pigweed (AMARE; Amaranthus retroflexus), wild mustard (SINAR; Sinapis arvensis), catchweed bedstraw (GALAP; Galium aparine), Russian thistle (SASKR; Salsola kali), common chickweed (STEME; Stellaria media), kochia (KCHSC; Kochia scoparia), and lambsquarters (CHEAL; Chenopodium album) were planted into a blend of loam soil and sand. Plants were grown in a greenhouse using supplemental lighting to maintain a photoperiod of about 14 hours; daytime and nighttime temperatures were about 23° C. and 16° C., respectively. Balanced fertilizer was applied through the watering system. The plants were grown for 10 to 23 days so that at time of treatment the plants ranged from 2- to 8-leaf stage. Treatments consisted of Compound 9, metsulfuron-methyl, and chlorsulfuron-metsulfuron-methyl (5:1) alone and in combination. The treatments were formulated in a non-phytotoxic solvent mixture which included a surfactant and applied as a foliage spray using a volume of 280-458 L/ha. Each treatment was replicated three times. […] Treated plants and controls were maintained in the greenhouse and watered as needed with care to not wet the foliage for the first 24 hours after treatment. The effects on the plants approximately 17 days after treatment were visually compared to untreated controls. Plant response ratings were calculated as the means of the three replicates, based on a scale of 0 to 100 where 0 is no effect and 100 is complete control. Colby's Equation was used to determine the herbicidal effects expected from the mixtures.

Experiment [4] has as its system kochia (KCHSC; Kochia scoparia). The experiment is described as above. To be noted: applied alone.
Excerpt: as §2

Experiment [5] relates to wild mustard (SINAR; Sinapis arvensis). The experiment is described as above. The settings on record: applied alone.
Excerpt: as §2

Experiment [6] concerns Russian thistle (SASKR; Salsola kali). The experiment is described as above. To be noted: applied alone.
Excerpt: as §2

The subject of experiment [7] is lambsquarters (CHEAL; Chenopodium album). The description is as above. To be noted: applied alone.
Excerpt: as §2

Experiment [8] has as its system wheat (TRZAW; Triticum aestivum). The experiment is described as above. To be noted: Metsulfuron-Methyl series, applied alone.
Excerpt: as §2

Experiment [9] deals with wild buckwheat (POLCO; Polygonum convolvulus). Described as above. To be noted: applied alone.
Excerpt: as §2

Experiment [10] deals with common chickweed (STEME; Stellaria media). The description is as above. To be noted: applied alone.
Excerpt: as §2

The test system of experiment [11] is redroot pigweed (AMARE; Amaranthus retroflexus). The description is as above. The settings on record: applied alone.
Excerpt: as §2

With `COc1cc(OC)nc(NC(=O)NS(=O)(=O)c2ncccc2C(=O)N(C)C)n1` [Nicosulfuron, nicosulfuron, reference compound], the “Obsd. observed effect (0 to 100 scale)” value was found to be 28 in experiment [1] and 15 in experiment [2].
For `COC(=O)c1ccccc1S(=O)(=O)NC(=O)Nc1nc(C)nc(OC)n1` [Metsulfuron-Methyl], the “GALAP Obsd. (observed effect)” value in [3] (4 g a.i./ha) and in [3] (8 g a.i./ha) was 0 in each case. Moreover, the “KCHSC Obsd. (observed effect)” value in [4] (4 g a.i./ha) and in experiment [4] (8 g a.i./ha) was 0 throughout. The “SINAR Obsd. (observed effect)” value in experiment [5] (4 g a.i./ha) and in [5] (8 g a.i./ha) was 0 in each case. In addition, the “SASKR Obsd. (observed effect)” value in experiment [6] (4 g a.i./ha) and in [6] (8 g a.i./ha) was 0 in each case. Further, the “CHEAL Obsd. (observed effect)” value in experiment [7] (4 g a.i./ha) and in [7] (8 g a.i./ha) was 0 each time. For the same molecule, the “TRZAW Obsd. (observed effect)” value in experiment [8] (4 g a.i./ha) and in experiment [8] (8 g a.i./ha) was 0 each time. The “POLCO Obsd. (observed effect)” value in [9] (4 g a.i./ha) and in experiment [9] (8 g a.i./ha) was 0 each time. The “STEME Obsd. (observed effect)” value in experiment [10] (4 g a.i./ha) and in experiment [10] (8 g a.i./ha) was 0 each time. The “AMARE Obsd. (observed effect)” value in experiment [11] (4 g a.i./ha) and in experiment [11] (8 g a.i./ha) was 0 throughout.
